From patent publication US20130303564A1, “METHOD FOR TREATING A NEURODEGENERATIVE DISORDER” (RUSH UNIVERSITY MEDICAL CENTER, priority 2012, published 2013) come the findings set out here.

The subject of assay [1] is NF-κB. Briefly: DNA-binding activity of NF-κB by EMSA in BV-2 microglial cells. The note with it: NaPB different concentrations, 6 h preincubation, LPS 1 h. In kind it is cell-based, mouse. A general note: In EMSA bound probe runs differently from free probe, usually more slowly.
Protocol: Results represent three independent experiments.
Activation of NF-κB was monitored by IκBαphosphorylation, DNA binding activity by EMSA and transcriptional activity by reporter assays.
Electrophoretic Mobility Shift Assay (EMSA): Nuclear extracts were prepared and EMSA was carried out. […] Six-micrograms of nuclear extract was incubated with binding buffer and with IR-labeled probe for 20 min. Subsequently, samples were separated on a 6% polyacrylamide gel in 0.25× TBE buffer (Tris borate-EDTA) and analyzed by Odyssey Infrared Imaging System (LI-COR Biosciences).
The subject of assay [2] is NF-κB. Briefly: Transcriptional activity of NF-κB (PBIIX-Luc reporter) in BV-2 microglial cells. Format: cell-based, mouse. On the procedure: Transcriptional activity of NF-κB: Transcriptional activity of NF-κB was assayed. […] After 24 h of transfection, […], and firefly and Renilla luciferase activities were recorded in a TD-20/20 Luminometer (Turner Designs, Sunnyvale, Calif.) by analyzing total cell extract according to standard instructions provided in the Dual Luciferase Kit (Promega), Relative luciferase activity of cell extracts was typically represented as (firefly luciferase value/Renilta luciferase value)×10^−3.

The test system of a further assay is IL-1β. The conditions noted are these: different concentrations, 6 h preincubation, 1 μM MPP+ 5 h. Here is the method:
(§1) Mouse BV-2 microglial cells were treated with different concentrations of NaPB for 6 h followed by stimulation with 1 μM. MPP under serum-free condition. After 5 h of stimulation, the mRNA expression of iNOS, IL-1β and TNF-α was monitored by semi-quantitative RT-PCR (A) and quantitative real-time PCR (C, iNOS; D, IL-1β; E, TNF-α). After 24 h of stimulation, the protein expression of iNOS was monitored by Western blot (B).
(§2) Glial inflammation is a critical component of PD pathogenesis which is mirrored in MPTP mouse models. The neurotoxic effect of MPTP depends on its conversion into MPP+. In glial cells, MAO-B converts MPTP to MPP+, which then leads to glial activation. MPP+ is able to stimulate the microglial expression of inflammatory molecules including NO, TNF-α, IL-1β, and IL-6. Although, a well characterized receptor for MPP+ was not known in microglial cells until recent past, low dose of MPP+ stimulates microglial activation via the engagement of cysteinyl leukotriene receptor (CysLT1R), MPP+ dependent activation of CysLT1R and its subsequent translocation from plasma membrane to cytosol plays a critical role in the process of microglial activation. Therefore, we investigated MPP+ could induce the expression of proinflammatory molecules microglia and if NaPB suppressed such induction.
(§3) Real-time PCR analysis: It was performed in the ABI-Prism7700 sequence detection system (Applied Biosystems, Foster City, Calif.) using TaqMan Universal Master mix and optimized concentrations of FAM-labeled probes and primers.

For a further assay, the system named is TNF-α. The note with it: different concentrations, 6 h preincubation, 1 μM MPP+ 5 h. Here is the method:
as §1, §2, §3

Another assay relates to CD11b. Here is the method: (§4) A) Mice were treated with NaPB (200 mg/kg body wt/d) from 3 h after the last injection of MPTP. Twenty-four h after the last injection of MPTP, ventral midbrain sections were immunostained for GFAP and CD11b. Results represent analyses of four nigral sections (two images per slide) from each of four mice. The mRNA expression GFAP and CD11b was analyzed by semi-quantitative RT-PCR (B) and quantitative real-time PCR (C).
(§5) Recently activation of glial cells is being considered as a pathological hallmark in PD and other neurodegenerative disorders. Increased expression of CD11b, the beta-integrin marker of microglia, represents microglial activation during neurodegenerative inflammation. Similarly, upon activation, astrocytes also express enhanced level of GFAP, which is considered as a marker protein for astrogliosis. We investigated if NaPB could attenuate MPTP-induced activation of glial cells in vivo in the nigra of mice.
(§6) Semi-quantitative RT-PCR analysis for proinflammatory molecules (iNOS, IL-1β and TNF-α) and glial cell markers: Total RNA was isolated from ventral midbrain using Ultraspec-II RNA reagent (Biotecx .Laboratories, Inc., Houston, Tex.) following manufacturer's protocol. To remove any contaminating genomic DNA, total RNA was digested with DNase. RT-PCR was carried out using a RT-PCR kit (Clontech., Mountain View, Calif.) and following primers.
as §3

The next assay relates to GFAP. Here is the method: as §4, §5, §6, §3
In assay [3] the test system is MPTP-intoxicated mice. Briefly: HPLC analysis of striatal dopamine in acute MPTP-intoxicated mice. Format: in vivo, mouse. The conditions noted are these: NaPB 200 mg/kg body wt/day from 3 h after last MPTP; 7 days; MPTP alone about 76% decrease.
Protocol: (§7) Mice receiving NaPB (200 mg/kg body wt/day) from 3 h after the last injection of MPTP were sacrificed 7d after the last injection of MPTP followed by TH immunostaining of SNpc (A) and striatum (B), counting of TH-positive neurons in SNpc (C), quantification of TH-positive fibers in striatum (D), assay of neurotransmitters in striatum (E), and quantification of GSH in nigra (F). Data are means+SEM of eight mice per group. ^ap<0.0001 vs saline group; ^bp<0.0001 vs the MPTP group.
Animals and MPTP intoxications: Six- to eight-week old C57BL/6 mice were purchased from Harlan, Indianapolis, Ind. For acute MPTP intoxication, mice received four intraperitoneal (i.p.) injections of MPTP-HCl (18 mg/kg of free base; Sigma Chemical Co., St. Louis, Mo.) in saline at 2 hr intervals. Control animals received only saline.
(§8) HPLC analysis of striatal dopamine and its metabolite levels: Striatal level of dopamine, DOPAC (3,4-dihydroxyphenylacetic acid) and HVA (homovanillic acid) was quantified. […] After pH adjustment and filtration, lOul of supernatant was injected onto an Eicompak SC-3ODS column (Complete Stand-Alone HPLC-ECD System EiCOMITTEC-500 from JM Science Inc., Grand Island, N.Y.) and analyzed following manufacturer's protocol.
Assay [4] concerns MPTP-intoxicated mice. The experiment in a line: Locomotor and open-field activities in acute MPTP-intoxicated mice. Format: in vivo, mouse. The note with it: NaPB 200 mg/kg body wt/day from 3 h after last MPTP; 7 d. Here is the method:
Mice receiving FTI, GGTI or the combination of the two via daily intraperitoneal injection from 3h after the last injection of MPTP were tested for motor functions (B, horizontal activity; C, total distance; D, number of movement; E, stereotypy) 7 d after the last injection of MPTP followed by measuring DA in striatum (A).
The ultimate therapeutic goal of neuroprotection is to decrease functional impairment. Therefore, to examine whether NaPB protects not only against structural and neurotransmitter damage but also against functional deficits caused by MPTP, we monitored locomotor and open-field activities. MPTP injection caused marked decrease in rotorod performance (FIG. 15A), movement time (FIG. 15B), total distance (FIG. 15C), stereotypy (FIG. 15E), rearing (FIG. 15F), and horizontal activity (FIG. 15G). On the other hand, MPTP increased the rest time (FIG. 15D).
Therefore, we investigated if inhibition of either p21^ras or p21^rac alone was sufficient for the protection of the nigrostriatum. MPTP-intoxicated mice received FTI and GGTI, either separately at 10 mg/kg body wt/d or together at 5 mg/kg body wt/d, via i.p. injection from 3 h after the last injection of MPTP. […]
Behavioral analyses: Two types of behavioral experiments were conducted. […] Locomotor activity measures were assessed after baseline value comparison.

The test system of a further assay is BV-2 microglial cells. The note with it: 500 μM, 6 h, 1 μM MPP+ 15 min.
The test system of a further assay is p21^rac. The conditions noted are these: 500 μM preincubation.
For assay [5], the system named is dopaminergic neurons of MPTP-intoxicated mice. The conditions noted are these: 200 mg/kg body wt/day from 3 h after last MPTP, 7 d.
Protocol: as §7
For acute MPTP intoxication, mice received four intraperitoneal (i.p.) injections of MPTP-HCl (18 mg/kg of free base; Sigma Chemical Co., St. Louis, Mo.) in saline at 2 hr intervals. Control animals received only saline. For chronic MPTP intoxication, mice received 10 injections of MPTP (s.c.; 25 mg/kg body weight) together with 10 injections of probenecid (i.p.; 250 mg/kg body weight) at an interval of 3.5 d.
Therefore, for short-term treatment, mice with acute MPTP 3 h after the last injection of MPTP. […]
Immunohistochemistry and quantitative morphology: Seven days after MPTP intoxication, mice were sacrificed and their brains fixed, embedded, and processed for tyrosine hydroxylase (TH) staining. […] Quantitation of striatal TH immunostaining was performed. […]
The test system of assay [6] is chronic MPTP mouse model of PD. The note with it: oral 100 mg/kg body wt/d from the third injection of MPTP/probenecid.
Protocol: A) Six to eight week old male C57BL/6 mice received 10 injections of MPTP (s.c.; 25 mg/kg body weight) together with 10 injections of probenecid (i.p.; 250 mg/kg body weight) for 5 weeks. Control group of mice received only saline. One group of mice were treated with NaPB (100 mg/kg body weight/d) via gavage from the 3rd injection of MPTP/probenecid and continued for 1 week thereafter. Mice were tested for different motor tasks [horizontal activity (C), number of movements (D), rearing (E), and stereotypy (F)] one week after the last injection of MPTP followed by measuring the level of DA in striatum (B). Data are means+SEM of eight mice per group. ^ap<0.001 vs saline; ^bp<0.001 vs MPTP; p<0.05 vs saline; ^dp<0.05 vs MPTP.
We examined if NaPB was capable of protecting neurons in a chronic model (FIG. 10A). […] We initiated oral NaPB treatment (100 mg/kg body wt/d) from the third injection of MPTP/probenecid (FIG. 10A). […]
as §8
Where [7] appears, read: 200 mg/kg body wt/d from 3 h after last MPTP, RT-PCR, real-time PCR.
Setting [8] is: 200 mg/kg body wt/d oral from 3 h after last MPTP, 24 h, immunofluorescence.

Protocol for p21^rac: D) Cells preincubated with 500 μM NaPB were stimulated with LPS. At different time points, activation of p21^ras and p21^rac was monitored. Results represent three independent experiments.

Take sodium phenylbutyrate [NaPB]: the “LPS-induced DNA-binding activity of NF-κB” value with NF-κB [1] is reported as “inhibited”. The “RasV12-induced activation of NF-κB” value with NF-κB [2] (RasV12-transfected cells, NaPB 6 h) is listed as “attenuated”. The “LPS-induced transcriptional activity of NF-κB” value in the assay on NF-κB [2] (different concentrations, 6 h preincubation) is “suppressed”. Moreover, the “MPP+-induced expression of IL-1β mRNA” value with IL-1β is on record as “inhibited”. For the same substance, the “MPP+-induced expression of TNF-α mRNA” value in the assay on TNF-α is recorded as “inhibited”. For the same substance, the “MPTP-induced mRNA expression of CD11b in the nigra” value in the assay on CD11b (setting [7]) is reported as “suppressed”. Further, the “CD11b protein expression in the nigra” value in the assay on CD11b (setting [8]) was “inhibition”. For the same substance, in the assay on GFAP (setting [7]), the “MPTP-induced mRNA expression of GFAP in the nigra” value was “suppressed”. Further, the “GFAP protein expression in the nigra” value in the assay with GFAP (setting [8]) was “inhibition”. In the assay with MPTP-intoxicated mice [3], the “decrease in striatal dopamine” value is given as 20-25%. In the assay with MPTP-intoxicated mice [4], the “MPTP-induced hypolocomotion (rotorod, movement time, total distance, rest time, stereotypy, rearing, horizontal activity)” value is on record as “significantly improved”. In addition, the “MPP+-induced production of intracellular ROS” value with BV-2 microglial cells is on record as “strongly inhibited”. For the same substance, in the assay on p21^rac, the “LPS-induced activation of p21^rac” value is “markedly suppressed”. Also, the “reduction in striatal TH ODs” value in assay [5] (vs MPTP alone (70% reduction)) was “less reduction”. In addition, the “reduction in SNpc TH-positive neurons” value in [5] (vs MPTP alone (approximately 75% loss)) is given as “less reduction”. The “striatal DA” value in [6] is listed as “significantly protected”.
